Experimental data as given in US20200190592A1, “PME-1 AS A BIOMARKER TO PREDICT AND DIAGNOSE AN INCREASED RISK OF ENDOMETRIAL CANCER AND GENE SILENCING OF PME-1 TO INHIBIT EPITHELIAL TO MESENCHYMAL TRANSITION” (Medical Diagnostic Laboratories, L.L.C., priority 2018, published 2020).

Assays:
recombinant PME-1_des3 = molecular target: T1, recombinant PME-1_des3 (Homo sapiens, UniProt Q9Y570); assay: Thermal melt (thermal shift) assay; assay type: binding
T1 sequence (Q9Y570 1-383 limits assumed): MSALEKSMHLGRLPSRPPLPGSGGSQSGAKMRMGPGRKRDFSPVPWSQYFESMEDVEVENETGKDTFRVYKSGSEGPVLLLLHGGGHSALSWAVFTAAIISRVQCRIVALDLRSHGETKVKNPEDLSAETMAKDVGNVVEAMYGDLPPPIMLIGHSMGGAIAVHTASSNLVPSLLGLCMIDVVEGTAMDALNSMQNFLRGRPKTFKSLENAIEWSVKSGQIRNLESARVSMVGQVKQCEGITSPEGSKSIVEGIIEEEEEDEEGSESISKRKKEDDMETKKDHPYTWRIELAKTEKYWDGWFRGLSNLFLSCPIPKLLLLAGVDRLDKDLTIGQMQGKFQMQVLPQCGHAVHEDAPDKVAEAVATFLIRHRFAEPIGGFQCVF
Description: There are several commercially available covalent PME-1 inhibitors that we have analyzed as potential endometrial cancer therapeutics. To confirm that the inhibitors directly bind PME-1, we completed a thermal melt assay. One micromole (1 μmole) of recombinant PME-1_des3, of which the last 3 amino acids are deleted, were pre-incubated with SYBR orange in the presence of 50 μM ABL-127 (a potent covalent PME-1 inhibitor, squares) or 0.05% DMSO (vehicle, circles) for 10 minutes (FIG. 25) at 37° C. We then performed a thermal gradient, increasing the temperature by 2° C. each minute from 37° C. to 95° C. and fluorescent signal was detected at 492-601 nm on a thermal cycler. The increase in Tm from ˜55° C. (PME-1+DMSO, circles) to ˜65° C. (PME-1+ABL-127, squares) indicated thermal stabilization of the PME-1 protein via direct binding of the ABL-127 inhibitor (FIG. 25).
The assay was completed by first conducting a 10 min pre-incubation of one μmole of recombinant PME-1des3 with 50 μM ABL127 (Sigma) or vehicle (0.05% DMSO) in the presence of SYBR Orange (1:1,000, v/v, Sigma) at 37° C. in 1×NEB buffer 2 (50 mM NaCl, 10 mM Tris-HCl, 10 mM MgCl2, 1 mM DTT, pH 7.9 at 25° C.), a thermal gradient was performed increasing temperature by 2° C. per minute increments from 37° to 95° C. and fluorescence (492 nm-610 nm) was acquired on a thermal cycler Mx3005P (Stratagene).

Ishikawa cells = assay: Trans-well migration assay; assay type: cell-based, human; conditions: 24 hr, through collagen towards 30% FBS, vs DMSO
Description: We next asked if PME-1 inhibition led to decreased cell migration by completing a trans-well migration assay. Cells were synchronized for 24 hours in media containing 0% FBS. For this experiment, DMSO was again used as the vehicle control and Ishikawa cells were treated with DMSO (control) or 50 nM ABL-127 or 20 μM AMZ-30 for 24 hr and were allowed to migrate through a collagen-coated well towards the bottom chamber, containing media with 30% FBS.
The assay was completed with ECC-1 endometrial carcinoma cell lines following kit instructions Cultrex 96 Well Collagen IV Cell Invasion Assay (cat #3458-096-K). Briefly, cells were serum starved for 24 hours prior to experimentation, then counted and put into the top chamber of a collagen type IV coated Transwell membrane at a concentration of 1×10^6 cells/well in 0% FBS. The bottom chamber contained 30% FBS. Cells were allowed to invade at 37° C. humid chamber incubator for 24 hours. Cells that invaded were analyzed using the kit provided Calcein-AM and fluorescence was read using FluoStar Galaxy.

[1] = system: Ishikawa endometrial cancer cells; assay: Foci formation assay in Ishikawa cells; assay type: cell-based, human; conditions: DMSO set to 100%
Description: This study was completed in Ishikawa endometrial cancer cells.
1,000 cells were plated in a six well tissue culture dish in selection media (to include 5 μg/ml puromycin) (InvivoGen). Cells were allowed to adhere and grow in a 5% CO2, 37° C. incubator for 10 to 14 days. […] Cells were stained with 1% crystal violet (Sigma Aldrich) for five minutes and rinsed with PBS. Colonies were counted and data is presented as the percentage of change compared to the control. All Experiments were repeated at least three times.

RL95-2 cells [2] = assay: Colony forming / invasive growth assay in Matrigel; assay type: cell-based, human; conditions: RL95-2 in Matrigel, addition of TGF-β (10 ng/ml)
Description: To determine if PME-1 contributes to the more invasive and metastatic phenotypes, we performed a colony forming assay in matrigel.
The 3D On Top Matrigel Assay was completed in 24 well dishes as described previously {Lee, 2007 #1577}. Briefly, the bottoms of 24 well dishes were coated with 50 μl BD Matrigel Basement Matrix Phenol Red Free (BD Biosciences cat. #356237) and allowed to solidify at 37° C. 10^5 cells were suspended in 250 μl chilled medium containing either 10 ng/ml of TGF-b or vehicle and allowed to settle at 37° C. for 30 minutes. Chilled medium containing 10% of Matrigel was added by pipetting gently down the sidewall of the well and incubated at 37° C. for ten days changing top medium every second day. Colony counts were performed on the tenth day, averages were taken from three fields of view using a 10× objective. Experiment was repeated three times.

PPME1 = assay: qRT-PCR of PPME1 (PME-1) expression in RL95-2 cells; assay type: cell-based, human; conditions: TGF-β 24 hours, control cells and +PME-1 cells, normalized to GAPDH
Description: In this study, we transfected RL95-2 cells to express empty vector (Control), over-expressing PME-1 (+PME-1) or expressing shRNA against PME-1 (−PME-1) followed by serum starvation for 24 hours. Afterwards, either vehicle or TGF-β treatment was performed at the end of the 24 hours. TGF-β was used to induce cells to initiate the EMT program. Gene expression analysis was conducted using quantitative real-time PCR.
Using RL95-2 endometrial cancer cells, we overexpressed PME-1 (FIG. 21A) or depleted PME-1 with shRNA (FIG. 21B) and confirmed that PME-1 was appropriately expressed.
Total RNA was extracted with Qiagen RNAEasy kit from RL95-2 cells. cDNA was synthesized using 500 ng-1 μg of RNA and SuperScript VILO c-DNA mix (Life Technologies). Taqman probes and PCR-mix were purchased from Life Technologies. All samples were run in triplicates. Results are representative of three independent experiments in which genes of interest were normalized to the house-keeping gene, 18S or GAPDH, where fold-change was calculated using the ddCt method.

[3] = molecular target: protein phosphatase 2A (PP2A), endogenous in RL95-2 cells; assay: cell-based or functional assay
PME-1 = assay: Western blot of PME-1 protein in RL95-2 cells; assay type: cell-based, human; conditions: GAPDH loading control
From the text: We prepared RL95-2 cell lines expressing empty vector (control), over-expressing PME-1 (+PME-1), or expressing shRNA against PPME1, the gene that codes for PME-1 protein (−PME-1). Using these cells, we confirmed the appropriate level of PME-1 via real-time RT-PCR (data not shown) and Western blot analysis (FIG. 8). GAPDH was used as a loading control.
We also prepared two different shRNAs targeted against PME-1.
Lentivirus was produced in HEK293T cell lines with pLKO shRN vectors (Thermo Scientific, cat. no. RHS4533; Waltham, Mass.) and pCDH-CuO-GFP-Puro vectors (System Biosciences, Inc., cat. no. QM513B-1; Mountain View, Calif.) with pPACKH1 packaging plasmid (System Biosciences, Inc., cat, no. LV050A-1). shRNA sequences are in the Table 2. Lentivirus was collected and concentrated with Peg-IT concentrating solution (System Biosciences, Inc.). 5×10^6 ifu/ml lentivirus was added to cell cultures with growth media and 8 μg/ml PolyBrene (Sigma Aldrich). Media was changed to full growth media after 24 hrs and to selection media containing antibiotic after 48 hrs (5 μg/ml puromycin) (Invivogen) for 10 days.
15 μg of protein was used for western analysis. […]

RL95-2 cells [4] = assay: Foci forming assay in RL95-2 cells; assay type: cell-based, human
Description: A foci forming assay was used in this study to monitor cell growth. Equal amounts of cells were plated and they were allowed to grow for a determined period of time (see Materials and Methods section for details). The foci that were formed were then stained with the crystal violet dye. Cells were washed […] with PBS prior to visualization. Numbers of foci were counted and results were averaged among different experiments.
To determine if the loss of active PME-1 accounted for the observed decrease in foci formation, we first treated RL95-2 cells with siRNA against the 3′-UTR of PPME1 to decrease endogenous levels of PME-1. […] The S156A PME-1 mutant is not capable of demethylating its target, PP2A.
1,000 cells were plated in a six well tissue culture dish in selection media (to include 5 μg/ml puromycin) (InvivoGen). Cells were allowed to adhere and grow in a 5% CO2, 37° C. incubator for 10 to 14 days. Media was replaced every fourth day. Cells were stained with 1% crystal violet (Sigma Aldrich) for five minutes and rinsed with PBS. Colonies were counted and data is presented as the percentage of change compared to the control. All Experiments were repeated at least three times.

Molecule: COC(=O)N1C(=O)C(c2ccccc2)(C2CCCC2)N1C(=O)OC (stereo in doubt) [ABL-127, (3R)-Dimethyl 3-cyclopentyl-4-oxo-3-phenyl-1,2-diazetidine-1,2,-dicarboxylate]
- Tm (recombinant PME-1_des3; 50 μM ABL-127, 10 min pre-incubation at 37° C., PME-1+DMSO ˜55° C.): ~65 °C
- melting temperature (Tm) and thermal stability of PME-1 (recombinant PME-1_des3; binding of ABL-127 vs vehicle): increases
- percentage of cells capable of migrating (Ishikawa cells; 50 nM): dramatic decrease
- decrease in the amount of foci formed ([1]; 50 nM every 2-3 days for 10 days): ~50%

Molecule: TGF-β [reference compound]
- colony number (RL95-2 cells [2]): overall decrease
- increase in PME-1 expression (PPME1): ~2 fold

Molecule: PME-1 (endogenous, RL95-2 cells) (from UniProt Q9Y570 2-386) (enzyme)
- PP2A activity (phosphatase assay) after shRNA depletion of PME-1 in RL95-2 cells [3]: 30 fold

Molecule: N#C/C(=C\c1cccn1S(=O)(=O)c1cccc([N+](=O)[O-])c1)S(=O)(=O)c1ccc(F)cc1 [AMZ-30, (E)-2-(4-Fluorophenylsulfonyl)-3-(1-(3-nitrophenylsulfonyl)-1H-pyrrol-2-yl)-acrylonitrile]
- percentage of cells capable of migrating (Ishikawa cells; 20 μM): dramatic decrease
- decrease in the amount of foci formed ([1]; 25 μM every 2-3 days for 10 days): ~50%

Molecule: shPPME1 no. 1: shRNA targeting PPME1, SEQ ID NO: 1: GTACAGCTATGGATGCACTTA, bp 554-574 (guide GTACAGCTATGGATGCACTTA; listed as Homo sapiens)
- PME-1 levels via Western blot analysis (PME-1): significantly decreased

Molecule: PME-1 over-expressed in RL95-2 cells (+PME-1) (from UniProt Q9Y570 1-386) (enzyme)
- PP2A activity (phosphatase assay) after over-expression of PME-1 in RL95-2 cells [3]: 90 % decrease

Molecule: PPME1 siRNA no. 2: siRNA, SEQ ID NO: 5: GTG GAT AGC ATC ACA AGA A, targets 3′-UTR (guide GTGGATAGCATCACAAGAA; listed as DNA, chemistry not given here; listed as Homo sapiens)
- decrease in foci formed (RL95-2 cells [4]; RL95-2, siRNA followed by empty vector, vs control siRNA with empty vector): 40%
- reduction in foci formation (RL95-2 cells [4]; RL95-2, siRNA plus over-expressed S156A mutant PME-1): 40%
